Assay results published in patent publication US20230058189A1, “QUINOLIN-4-ONE AND 4(1H)-CINNOLINONE COMPOUNDS AND METHODS OF USING SAME” (Frequency Therapeutics, Inc., priority 2019, published 2023).
≈ marks a conversion by molar mass, not a printed value.

What was measured:
[1] = tested on: Lgr5+ cells (cochlear stem cells); assay: Lgr5+ assay: expansion of Lgr5-positive cochlear cells in 3D culture; type: cell-based, mouse; details: 10 days culture with EGF, bFGF, IGF1, approximate values; for Potency (Lgr5+ activity): effective concentration for Lgr5+ expansion
Text: “Stem Cell Proliferation Assay” as used herein is an assay to determine the capacity for agent(s) to induce the creation of stem cells from a starting cell population. In an exemplary Stem Cell Proliferation Assay, the number of cells for an initial cell population is harvested from a Lgr5-GFP mouse such as a B6.129P2-Lgr5tm1(cre/ERT2)Cle/J mouse (also known as Lgr5-EGFP-IRES-creERT2 or Lgr5-GFP mouse, Jackson Lab Stock No: 008875) between the age of 3 to 7 days, by isolating the organ of Corti sensory epithelium and dissociating the epithelium into single cells. Approximately 5000 cells are entrapped in 40 μl of culture substrate (for example, Matrigel (Corning, Growth Factor Reduced)) and placed at the center of wells in a 24-well plate with 500 μl of an appropriate culture media, growth factors and agent being tested. Appropriate culture media and growth factors include Advanced DMEM/F12 with media supplements (1×N2, 1×B27, 2 mM Glutamax, 10 mM HEPES, 1 mM N-acetylcysteine, and 100 U/ml penicillin/100 μg/ml streptomycin) and growth factors (50 ng/ml EGF, 50 ng/ml bFGF, and 50 ng/ml IGF-1) as well as the agent(s) being assessed are added into each well. Cells are cultured for 10 days in a standard cell culture incubator at 37° C. and 5% CO2, with media change every 2 days. The number of Lgr5^+ cells is quantified by counting the number of cells identified as Lgr5+ in an in vitro Lgr5 activity assay (i.e., an assay mearing in vitro Lgr5 activity). The fraction of cells that are Lgr5^+ is quantified by dividing the number of cells identified as Lgr5^+ in a cell population by the total number of cells present in the cell population. The average Lgr5^+ activity of a population is quantified by measuring the average mRNA expression level of Lgr5 of the population normalized using suitable and unregulated references or housekeeping genes (e.g., Hprt). The number of hair cells in a population may be measured by staining with hair cell marker (e.g., MyosinVIIa), or using an endogenous reporter of hair cell genes (e.g., Pou4f3-GFP, Atoh1-nGFP) and analyzing using flow cytometry. The fraction of cells that are hair cells is quantified by dividing the number of cells identified as hair cells in a cell population by the total number of cells present in the cell population. Lgr5 activity can be measured by qPCR.
The compounds of the present disclosure were used in Lgr5-EGFP-IRES-Cre-ER mice (Barker et al., 2007) to analyze the effects of small molecules on cochlear stem cell expansion.
Isolation of stem cells from the inner ear: All animal studies were conducted under an approved institutional protocol according to National Institutes of Health guidelines. For experiments with neonatal mice (postnatal days 1-3), the cochleae were dissected in Hank's Balanced Salt Solution (HBSS) and the organs of Corti were separated from the stria vascularis and the modiolus. The organs of Corti were then treated with Cell Recovery Solution (Corning) for 1 hour to separate cochlear epithelium from the underlying mesenchyme. Epithelia were then collected and treated with TrypLE (Life Technologies) for 15-20 minutes at 37° C. Single cells obtained by mechanical trituration were filtered (40 μm) and suspended in Matrigel® (Corning) for 3D culture.
Cells were cultured in a 1:1 mixture of DMEM and F12, supplemented with Glutamax (GIBCO), N2, B27 (Invitrogen), EGF (50 ng/ml; Chemicon), bFGF (50 ng/ml; Chemicon), IGF1 (50 ng/ml; Chemicon) and the composition provided herein. Medium was changed every other day.
Lgr5-positive cells were quantified after 10 days (D10) in culture in multiple conditions. Cell colonies were dissociated into single cells using TrypLE (Gibco). The cells were then stained with propidium iodide (P1) and were analyzed using a flow cytometer for Lgr5-GFP expression. The number of GFP-positive cells and the percentage of GFP-positive cells were quantified. […]

[2] = Thermodynamic aqueous solubility at pH 7.4; type: physicochemical; details: aqueous buffer, thermodynamic from solid, phosphate buffer pH 7.4, 25° C., approximate values, read-out: Concentration (thermodynamic aqueous solubility)
Method: The aqueous thermodynamic solubilities of the compounds of the present disclosure were measured at pH 7.4.
Determining suitability for use of a compound, e.g., as a therapeutic agent can include determining the thermodynamic solubility of the compound. An example of this determination follows: Accurately weigh about 1 mg of the powder of each compound into a glass insert vial and phosphate buffer into each vial of a capless Solubility Sample plate with the volume of 1 mL per mg. Next, add one stir stick to each vial and seal with a molded PTDE/SIL 96-Well Plate Cover. Transfer the Solubility Sample plate to an Eppendorf Thermomixer Comfort plate shaker and shake the plate at 25° C. at 1,100 rpm for 24 hours. At the end of the incubation, open the cover and remove the stir sticks using a big magnet and transfer the samples from the Solubility Sample plate into the filter plate. Using the vacuum manifold, all the samples were filtered. An aliquot of 100 μL was transferred from filtrate to a new 96-well plate by addition of 900 μL of a mixture of H2O and acetonitrile containing an internal standard (1:1) (10 fold) and 10 μL of the diluted solution was pipetted into a new 96-well plate by addition of 990 μL of a mixture of H2O and acetonitrile containing internal standard (1:1) (1,000 fold). The dilution factor may be changed according to the solubility value and the LC/MS signal response.
To prepare standards for the assay, accurately weigh about 1 mg of the powder of each compound into a glass insert vial, add DMSO into each vial of the Standard Plate with the volume of 1 mL per mg to obtain the 1 mg/mL STD sample. Aliquots of 10 μL were taken from 1 mg/mL STD sample to a new 96-well plate followed by addition of 990 μL of a mixture of H2O and acetonitrile containing internal standard (1:1) to obtain 10 μg/mL STD and then 10 μL aliquots were taken from 10 μg/mL sample to a new 96-well plate followed by addition of 990 μL of a mixture of H2O and acetonitrile containing internal standard (1:1) to obtain 0.1 μg/mL STD. The concentration of the standard sample may be changed according to the LC/MS signal response.
The samples were analyzed and quantified against the standard of known concentration using LC/MS/MS. The solubility of the test compound was calculated as follows: [Sample]=Area Ratio sample×DF sample×[STD]/Area Ratio STD DF means the dilution factor. Any value of the compounds that is not within the specified limits was rejected and the experiment was repeated.

[3] = molecular target: Foxo-1 (Homo sapiens, UniProt Q12778); details: from Molecular Pharmacology (2010), 78(5), 961-970; approximate values; read-out: Potency Foxo-1; cited from earlier work
Foxo-1, sequence (Q12778 whole entry, species assumed): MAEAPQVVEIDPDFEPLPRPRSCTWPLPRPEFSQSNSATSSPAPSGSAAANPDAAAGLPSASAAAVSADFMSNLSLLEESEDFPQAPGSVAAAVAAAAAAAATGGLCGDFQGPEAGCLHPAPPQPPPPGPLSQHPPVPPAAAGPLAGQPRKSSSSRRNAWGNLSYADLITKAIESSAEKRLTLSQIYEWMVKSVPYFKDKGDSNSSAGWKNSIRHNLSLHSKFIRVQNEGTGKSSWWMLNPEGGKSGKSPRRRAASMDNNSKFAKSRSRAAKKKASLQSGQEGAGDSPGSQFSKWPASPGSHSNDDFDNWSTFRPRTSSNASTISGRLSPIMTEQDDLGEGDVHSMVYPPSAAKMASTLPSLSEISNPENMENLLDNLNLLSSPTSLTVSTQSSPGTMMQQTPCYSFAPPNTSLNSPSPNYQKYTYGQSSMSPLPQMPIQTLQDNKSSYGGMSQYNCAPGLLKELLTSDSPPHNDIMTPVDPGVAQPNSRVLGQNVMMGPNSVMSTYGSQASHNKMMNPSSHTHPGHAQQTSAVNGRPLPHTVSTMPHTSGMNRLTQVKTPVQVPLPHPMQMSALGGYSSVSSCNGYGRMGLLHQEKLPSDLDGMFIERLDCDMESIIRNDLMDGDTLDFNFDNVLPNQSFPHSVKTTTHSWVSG

Row | SMILES | solubility thermodynamic at 24 h [2] | % of Lgr5+ Positive Cells [1] | Potency (Lgr5+ activity) [1] | IC50 [3]
1 | CCn1cc(C(=O)O)c(=O)c2c(N)c(F)c(NCCN[C@@H]3C[C@]34CCc3ccccc34)cc21 (relative stereo) [Compound I-81] | 1.2 µM (≈ 0.541 µg/mL) | 65% | 10 µM | –
2 | CCn1cc(C(N)=O)c(=O)c2c(N)c(F)c(NCCN[C@H]3C[C@@H]3c3ccccc3)cc21 (relative stereo) [Compound I-83] | 9.6 µM (≈ 4.07 µg/mL) | 12% | 1.1 µM | –
3 | CCn1cc(C#N)c(=O)c2c(N)c(F)c(NCCN[C@@H]3C[C@H]3c3ccccc3)cc21 (relative stereo) [Compound I-84] | 49 µM (≈ 19.9 µg/mL) | 9% | 1.1 µM | –
4 | Cn1cc(C(=O)O)c(=O)c2c(N)c(F)c(NCCN[C@@H]3C[C@H]3c3ccccc3)cc21 (relative stereo) [Compound I-86] | 23 µM (≈ 9.44 µg/mL) | 4% | >30 µM | –
5 | CCCn1cc(C(=O)O)c(=O)c2c(N)c(F)c(NCCN[C@@H]3C[C@H]3c3ccccc3)cc21 (relative stereo) [Compound I-87] | 8 µM (≈ 3.51 µg/mL) | 52% | 3.3 µM | –
6 | CCC(CC)n1cc(C(=O)O)c(=O)c2c(C)c(F)c(NC3CCCCC3)cc21 [Compound I-3] | – | <5% | >10 µM | < 100 nM
7 | CCn1cc(C(=O)O)c(=O)c2c(N)c(F)c(NC3CCOCC3)cc21 [Compound I-8] | 35 µM (≈ 12.2 µg/mL) | 21% | 3.3 µM | –
8 | CCn1cc(C(=O)O)c(=O)c2c(N)c(F)c(NC3CCCC3)cc21 [Compound I-9] | < 1.8 µM | 13% | 1.1 µM | –
9 | CCn1cc(C(=O)O)c(=O)c2c(N)c(F)c(NC3CCC3)cc21 [Compound I-12] | 2.7 µM (≈ 0.862 µg/mL) | 25% | 1.1 µM | –
10 | CCn1cc(C(=O)O)c(=O)c2c(N)c(F)c(NC3CC3)cc21 [Compound I-15] | 2.4 µM (≈ 0.733 µg/mL) | 30% | 3.3 µM | –
11 | CCn1cc(C(=O)O)c(=O)c2c(N)c(F)c(NCCc3ccccc3)cc21 [Compound I-18] | 0.12 µM (≈ 0.0443 µg/mL) | 31% | 1.1 µM | –
12 | CCn1cc(C(=O)O)c(=O)c2c(N)c(F)c(NCCCc3ccccc3)cc21 [Compound I-19] | < 0.03 µM | 17% | 0.37 µM | –
13 | CCn1cc(C(=O)O)c(=O)c2c(N)cc(NCCCc3ccccc3)cc21 [Compound I-57] | < 0.03 µM | 1% | 30 µM | –

Now from value to compound, other results behind:

Row | solubility thermodynamic at 24 h [2] | SMILES | % of Lgr5+ Positive Cells [1] | Potency (Lgr5+ activity) [1] | IC50 [3]
14 | < 0.3 µM | CCn1cc(C(=O)O)c(=O)c2c(N)c(F)c(N[C@@H]3C[C@H]3c3ccccc3)cc21 (single isomer, unassigned) [Compound I-20] | 42% | – | –
15 | < 0.08 µM | CCn1cc(C(=O)O)c(=O)c2c(N)c(F)c(NC3Cc4ccccc4C3)cc21 [Compound I-11] | 17% | 3.3 µM | –
16 | 1.1 µM (≈ 0.375 µg/mL) | CCn1cc(C(=O)O)c(=O)c2c(N)c(F)c(Nc3ccccc3)cc21 [Compound I-16] | 22% | 1.1 µM | –
17 | 0.11 µM (≈ 0.0391 µg/mL) | CCn1cc(C(=O)O)c(=O)c2c(N)c(F)c(NCc3ccccc3)cc21 [Compound I-17] | 22% | 3.3 µM | –
18 | < 10 µM | CCn1cc(C(=O)O)c(=O)c2c(N)c(F)c(N[C@H]3C[C@H](c4ccccc4)C3)cc21 [Compound I-60] | 30% | 0.37 µM | –
19 | < 0.002 µM | CCn1cc(C(=O)O)c(=O)c2c(N)c(F)c(N[C@H]3C[C@@H](c4ccccc4)C3)cc21 [Compound I-61] | 30% | 1.1 µM | –
20 | < 0.03 µM | CCn1cc(C(=O)O)c(=O)c2c(N)c(F)c(NC3CN(c4ccccc4)C3)cc21 [Compound I-69] | 25% | 1.1 µM | –
